Source: US20230114728A1 (Venatorx Pharmaceuticals, Inc., priority 2019, published 2023)
≈ marks a conversion by molar mass, not a printed value.

Legend:
[1] = Bocillin-FL fluorescence polarization competition binding assay, A. baumannii PBP3; details: fluorescence polarization competition binding assay using Bocillin-FL; column 3; read-out: 4. baumannii PBP1a Potency
Summary of the method: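 Fluorescence polarization (ex 490/em 520 nm) competition of inhibitors against Bocillin-FL at 0.1 μM, read up to 60 min. Final PBP levels: E. coli PBP3 1.5 μM; A. baumannii PBP2 2.5 μM, PBP3 0.2 μM in Tris pH 8.0/NaCl/glycerol/Tween 20; N. gonorrhoeae PBP2 […] in Hepes pH 8.0/NaCl/glycerol. EC50 = concentration halving PBP-bound Bocillin-FL.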

[2] = system: P. aeruginosa CDC-0090 producing KPC-5, OXA-50, and PAO; experiment: Broth microdilution MIC in iron-depleted CAMHB (IDM); assay type: cell-based; details: Pseudomonas aeruginosa, read-out: Minimum Inhibitory Concentration, P. aeruginosa CDC-0090
Summary of the method: (§1)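 IDM = CAMHB stripped with Chelex 100 resin 2 h, supplemented CaCl2 82.5 mg/L, MgCl2 94.1 mg/L, ZnSO4 10 μM, pH 7.3. 2-fold compound dilutions; 2-8×10^5 CFU/mL; 37° C; Acinetobacter 20-24 h, Pseudomonas 16-20 h. Visual MIC.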

[3] = system: P. aeruginosa (ΔmexAB-oprM); experiment: as above; assay type: cell-based; details: Pseudomonas aeruginosa, read-out: Minimum Inhibitory Concentration, P. aeruginosa ΔmexAB-OprM
Summary of the method: as §1

[4] = system: A. baumannii CDC-0033 producing NDM-1, and OXA-94; experiment: as above; assay type: cell-based; details: Acinetobacter baumannii, read-out: Minimum Inhibitory Concentration, CDC-0033
Summary of the method: as §1

[5] = system: P. aeruginosa CDC-0054 producing VIM-4, OXA-50, and PAO; experiment: as above; assay type: cell-based; details: Pseudomonas aeruginosa, read-out: Minimum Inhibitory Concentration, P. aeruginosa CDC-0054
Summary of the method: as §1

[6] = system: A. baumannii ATCC 19606; experiment: as above; assay type: cell-based; details: Acinetobacter baumannii, ATCC19606, read-out: Minimum Inhibitory Concentration, ATCC 19606
Summary of the method: as §1

| Compound | EC50 [1] [µM] | MIC [2] [µg/mL] | MIC [3] [µg/mL] | MIC [4] [µg/mL] | MIC [5] [µg/mL] | MIC [6] [µg/mL] |
| --- | --- | --- | --- | --- | --- | --- |
| C[C@@H](O)[C@@H](NC(=O)N1CCN(CCNC(=O)c2c(F)cc(O)c(O)c2Cl)C(=O)C1=O)C(=O)N[C@H]1Cc2ccc(F)c(C(=O)O)c2OB1O [Example 102, (R)-3-((2R,3R)-2-(4-(2-(2-chloro-6-fluoro-3,4-dihydroxybenzamido)ethyl)-2,3-dioxopiperazine-1-carboxamido)-3-hydroxybutanamido)-7-fluoro-2-hydroxy-3,4-dihydro-2H-benzo[e][1,2]oxaborinine-8-carboxylic acid] | 30 to 100 | 2 to 4 (≈ 2.87 to 5.73 µM) | 0.5 to 1 (≈ 0.717 to 1.43 µM) | 32 to 64 (≈ 45.9 to 91.7 µM) | 32 to 64 (≈ 45.9 to 91.7 µM) | 2 to 4 (≈ 2.87 to 5.73 µM) |
| NS(=O)(=O)c1cc(O)cc(C(NC(=O)N2CCN(Cc3c(F)cc(O)c(O)c3Cl)C(=O)C2=O)C(=O)N[C@H]2Cc3cccc(C(=O)O)c3OB2O)c1 (stereo partly drawn) [Example 132, (3R)-3-(2-(4-(2-chloro-6-fluoro-3,4-dihydroxybenzyl)-2,3-dioxopiperazine-1-carboxamido)-2-(3-hydroxy-5-sulfamoylphenyl)acetamido)-2-hydroxy-3,4-dihydro-2H-benzo[e][1,2]oxaborinine-8-carboxylic acid] | < 10 | 2 to 4 (≈ 2.67 to 5.33 µM) | 0.25 (≈ 0.333 µM) | > 128 | > 128 | 8 to 16 (≈ 10.7 to 21.3 µM) |
| NCCCN1CCN(C(=O)N[C@@H](C(=O)N[C@H]2Cc3ccc(F)c(C(=O)O)c3OB2O)c2cc(F)c(O)c(O)c2Cl)C(=O)C1=O (single isomer, unassigned) [Example 180] | > 100 | 2 to 4 (≈ 3.13 to 6.25 µM) | 0.25 (≈ 0.391 µM) | 8 to 16 (≈ 12.5 to 25 µM) | 0.5 to 1 (≈ 0.782 to 1.56 µM) | 0.5 to 1 (≈ 0.782 to 1.56 µM) |
| NC1(CN2CCN(C(=O)N[C@@H](C(=O)N[C@H]3Cc4ccc(F)c(C(=O)O)c4OB3O)c3c(F)cc(O)c(O)c3Cl)C(=O)C2=O)CC1 (single isomer, unassigned) [Example 134] | < 10 | 2 to 4 (≈ 3.07 to 6.14 µM) | 0.25 (≈ 0.384 µM) | 32 to 64 (≈ 49.1 to 98.2 µM) | 32 to 64 (≈ 49.1 to 98.2 µM) | 0.5 to 1 (≈ 0.767 to 1.53 µM) |
| NCCN1CCN(C(=O)N[C@@H](C(=O)N[C@H]2Cc3ccc(F)c(C(=O)O)c3OB2O)c2cc(F)c(O)c(O)c2Cl)C(=O)C1=O (single isomer, unassigned) [Example 179] | > 100 | 2 to 4 (≈ 3.2 to 6.39 µM) | 0.25 (≈ 0.4 µM) | 8 to 16 (≈ 12.8 to 25.6 µM) | 0.5 to 1 (≈ 0.799 to 1.6 µM) | 0.5 to 1 (≈ 0.799 to 1.6 µM) |
| NC1(CN2CCN(C(=O)N[C@@H](C(=O)N[C@H]3Cc4ccc(F)c(C(=O)O)c4OB3O)c3cc(F)c(O)c(O)c3Cl)C(=O)C2=O)CC1 (single isomer, unassigned) [Example 133] | < 10 | 0.5 to 1 (≈ 0.767 to 1.53 µM) | 0.25 (≈ 0.384 µM) | 8 to 16 (≈ 12.3 to 24.5 µM) | 0.5 to 1 (≈ 0.767 to 1.53 µM) | 0.25 (≈ 0.384 µM) |
| CCN1CCN(C(=O)N[C@@H](C(=O)N[C@H]2Cc3cccc(C(=O)O)c3OB2O)c2ccc(C(=O)O)cc2)C(=O)C1=O (single isomer, unassigned) [Example 124] | < 10 | – | – | – | – | – |
| NCCN1CCN(C(=O)N[C@H](C(=O)N[C@H]2Cc3cccc(C(=O)O)c3OB2O)c2c(F)cc(O)cc2F)C(=O)C1=O (single isomer, unassigned) [Example 110] | > 100 | – | – | – | – | – |
| CCN1CCN(C(=O)NC(C(=O)N[C@H]2Cc3cccc(C(=O)O)c3OB2O)c2c(F)cc(N)cc2F)C(=O)C1=O (stereo partly drawn) [Example 181, (3R)-3-(2-(4-amino-2,6-difluorophenyl)-2-(4-ethyl-2,3-dioxopiperazine-1-carboxamido)acetamido)-2-hydroxy-3,4-dihydro-2H-benzo[e][1,2]oxaborinine-8-carboxylic acid] | > 100 | – | – | – | – | – |
| NS(=O)(=O)Nc1cccc(C(NC(=O)N2CCN(Cc3c(F)cc(O)c(O)c3Cl)C(=O)C2=O)C(=O)N[C@H]2Cc3cccc(C(=O)O)c3OB2O)c1 (stereo partly drawn) [Example 131, (3R)-3-(2-(4-(2-chloro-6-fluoro-3,4-dihydroxybenzyl)-2,3-dioxopiperazine-1-carboxamido)-2-(3-(sulfamoylamino)phenyl)acetamido)-2-hydroxy-3,4-dihydro-2H-benzo[e][1,2]oxaborinine-8-carboxylic acid] | < 10 | 2 to 4 (≈ 2.67 to 5.34 µM) | 0.25 (≈ 0.334 µM) | > 128 | > 128 | > 128 |
| CCN1CCN(C(=O)N[C@H](C(=O)N[C@H]2Cc3ccc(F)c(C(=O)O)c3OB2O)c2c(F)cc(O)c(O)c2Cl)C(=O)C1=O (single isomer, unassigned) [Example 125] | > 100 | > 128 | > 128 | > 128 | > 128 | > 128 |
